Data published in paper PMC3822755 (Bioorganic & medicinal chemistry letters, 2013).

Key:
[1] = tested on: VSV-GP (vesicular stomatitis virus particle bearing the EBOV GP); assay type: cell-based
[2] = tested on: VSV-G (VSV bearing its native envelope glycoprotein G); assay type: cell-based, vesicular stomatitis virus; Vero host cells

Compound | activity against VSV-GP entry (in words) [1] | inhibition of VSV-GP entry [1] | potency against VSV-GP compared with 1-Chol and 2-Chol ([1]; 20 µM) | activity against VSV-G (in words) [2]
KKKKGSGC(Chol) ^b [Peptide 3-Chol] | active | > 90% | much less potent | active
CC(C)CCC[C@@H](C)[C@H]1CC[C@H]2[C@@H]3CC=C4C[C@@H](O)CC[C@]4(C)[C@H]3CC[C@]12C [cholesterol, reference compound] | relatively modest effects |  |  | 
